The results in this text go back to a melting point compilation (Tetko et al.; mined from patent text by program, amines drawn as free bases though some values may be those of a salt).

Each structure is given as a SMILES string.

Broadly, the melting point is the temperature, or range, at which the solid turns liquid. Take `CC(=O)OC1C(C)OC(n2cc(F)c(=O)[nH]c2=O)C1OC(C)=O` (centres undefined): the melting point lay in the range of 176 to 177 °C. Turning to `Cc1cccnc1C(O)c1ccc(N)cc1` (centres undefined), the melting point was 153 to 154 °C. The value for `CCNC(=O)[C@H]1N(C(=O)[C@@H](O)[C@H](Cc2ccccc2)NC(=O)c2cc(C)cc(O)c2C)CC(F)(F)C1(C)C` was 208 to 214 °C.

On to `COc1cc(OC)cc(-c2nc[nH]c2-c2ccc(OC)c(N)c2O)c1`, for which the melting point lay in the range of 132 to 134 °C.

`COC(=O)c1cc(N)cc(-n2cccc2)c1` displayed a melting point of 116 to 118 °C.

The molecule `Cc1nc(CO)c2n1-c1ccc(Cl)cc1C(c1ccccc1Cl)=NC2` came in with a melting point of 215 to 217 °C. The molecule `OCCSc1nc(-c2ccccc2)c2cc(Cl)ccc2n1` showed a melting point of 124 °C. Take `CC(C)(C)c1cc(Sc2n[nH]c(=S)s2)cc(C(C)(C)C)c1O`: the melting point lay within 181 to 186 °C. The value for `Cc1cc(C(=O)N2Cc3cccn3Cc3ccccc32)ccc1C1=CC(=O)CCC1` was 176 to 177 °C. `O=C(Nc1ccc(C2CC(F)(F)C2(F)Cl)cc1)Nc1nonc1-c1ccccc1` (centres undefined) displayed a melting point of 201 °C. As to `CCOC(=O)C1=Cc2cc(Cl)c(O)cc2OC1C(F)(F)F` (centres undefined), the melting point fell in the range of 118 to 125 °C. The value for `CC(C)(O)c1ccnc(-c2ccc3nc(-c4n[nH]c5ccccc45)cn3c2)c1` was 255 to 259 °C. In the case of `CCOCc1nc2c(N)nc3ccccc3c2n1CCCC(C)=NO`, the melting point is 220 to 223 °C.

For the molecule `O=C1OC2CCSC2Cn2cccc21` (centres undefined), the melting point fell in the range of 167 to 168 °C.

`NC(=O)C1(c2ccn(C(CC(=O)OCc3ccccc3)C(=O)NC(CO)Cc3ccccc3)c2)C=CC(c2ccccc2)=CC1` (centres undefined) registered a melting point of 192 to 194 °C. In turn, `CCOC(=O)c1cc(NCc2ccccc2)c(Oc2ccc(OCc3ccccc3)cc2)c(S(N)(=O)=O)c1` had a melting point of 166 °C. As for `Cc1cc(-c2cc(C(F)(F)F)n3ncc(C(=O)Nc4cc(S(N)(=O)=O)sc4Cl)c3n2)ccc1C(F)(F)F`, the melting point was 283 °C.

`COC(=O)CCC(=O)c1ccccc1OCC(O)CNC(C)(C)C` (centres undefined) came in with a melting point of 80 to 81.5 °C.

Turning to `COC(=O)C1(C(N)=O)CC1`, the melting point was found to be 157 °C. Molecule `COc1nsc(N[C@@H](CC(C)C)C(=O)N2CCC[C@H]2C(=O)O)n1` came in with a melting point of 89 to 92 °C. The value for `O=C(O)CCCCC(=O)NCCc1ccccc1` was 110 to 111 °C; that for `CCOC(=O)C(=O)Nc1cccc(S(C)=O)c1C(N)=O` (centres undefined) was 164 to 166 °C; that for `CCOc1ccc(N(Cc2ccccc2)Cc2ccccc2)cc1` was 80 to 82 °C. `O=C1c2ccccc2C(=O)N1CCCOc1cccc([N+](=O)[O-])c1` returned a melting point of 149 to 152 °C.

In turn, `O=C(NC(=O)c1c(F)cccc1F)Nc1cc(Cl)c(Oc2ccc(S(=O)(=O)c3ccc(Cl)cc3)cc2)c(Cl)c1` registered a melting point of 207 to 209 °C. In the case of `CN(C)C(=O)Oc1ccc2c(c1)[nH]c(=O)c1c3ccc(OC(=O)N(C)C)cc3oc21`, the melting point fell in the range of 255 to 269 °C. As to `COc1ccc(-c2c(Cl)ncnc2NS(=O)(=O)c2ccc(OC)cc2)cc1`, the melting point was 165 to 167 °C. The value for `COCCOc1ccc(-c2nc(C(=O)Nc3nccs3)c(-c3ccc(Cl)cc3)[nH]2)cc1` was 147 to 148 °C. The molecule `O=C(O)N1CCN(C(=O)c2cccs2)CC1` yielded a melting point of 76 °C.

In turn, `COc1nc(C)nc(NC(=O)NS(=O)(=O)c2ccccc2-c2cnn(C)c2)n1` gave a melting point of 221 to 224 °C.

With `CN(C)C=Nc1sc(C=O)c(Cl)c1C#N`, the melting point was 186 °C. The molecule `CCOC(=O)c1cnc(-c2ccccc2OCC2CC2)[nH]c1=O` had a melting point of 104 to 105 °C.

For the molecule `NS(=O)(=O)OCCc1ccccn1`, the melting point fell in the range of 89 to 91 °C. Regarding `CCOC(=O)C1=C(COCc2cccnc2)NC(COCc2cccnc2)=C(C(=O)OCC)C1c1ccccc1[N+](=O)[O-]`, the melting point was 142 to 145 °C.

Consider `COc1ccc(OC)c(C2=Nc3ccc(N4CCCC4)cc3C(=O)C2)c1`, for which the melting point lay within 272 to 274 °C. For `CN1CCC(=C2c3ccccc3COc3ccc(C(=O)O)cc32)CC1`, the melting point lay within 205 to 210 °C. For the molecule `CC(C)(C)C(COC(N)=O)(NC(=O)C(=O)c1c[nH]c2cc(Br)ccc12)c1c[nH]c2ccccc12` (centres undefined), the melting point turned out to be 145 °C. On to `CC(=O)N(NC(=O)c1ccccc1)[C@@H]1c2cc(C#N)ccc2OC(C)(C)[C@H]1O` (relative stereo), for which the melting point lay in the range of 212 to 213 °C. The molecule `CCCN(C=Nc1ccc2nnc(-c3ncc([N+](=O)[O-])n3C)n2n1)CCC` yielded a melting point of 155 to 157 °C. In the case of `COc1ccc(Nc2nc(NC3CC3)nc(NC3CC3)n2)cc1F`, the melting point is 91 to 92 °C. As for `O=c1c2ccc(Cl)cc2[nH]n1-c1ccccc1F`, the melting point fell in the range of 205 to 215 °C. Molecule `Nc1cc(=O)n(Cc2ccccc2C(F)(F)F)[nH]1` displayed a melting point of 184 °C.

Turning to `CCN(CC)C(=O)n1cnc(S(=O)(=O)C(F)(F)Br)n1`, the melting point lay in the range of 74 to 75 °C. As to `Cc1nnc(-c2ccc3occ(-c4ccc(S(C)=O)c(F)c4)c3c2)o1` (centres undefined), the melting point lay in the range of 168 to 169 °C.

With `CNc1nc(Cc2cc(OC)c(OC)c(OC)c2)nc2sc(C#N)c(C)c12`, the melting point is 194 to 195 °C. `O=c1c2c(Cc3ccccc3[N+](=O)[O-])n[nH]c2c2cccnc2n1-c1cccc(OC(F)(F)F)c1` gave a melting point of 274 to 276 °C.

Molecule `Cc1oc(C2CC2)nc1COc1ccc(CC(OC(C)C)C(=O)O)c2ccccc12` (centres undefined) displayed a melting point of 129 to 130 °C. In the case of `Fc1ccc(C2(Cn3ncnc3S)OC2c2ccccc2Cl)cc1` (centres undefined), the melting point is 179 to 180 °C. The value for `COC(=O)C(C)(C)C(Cc1ccc(OC)cc1)NS(=O)(=O)c1ccc(C)cc1` (centres undefined) was 126 to 127 °C; that for `O=C(O)c1cccc(-n2c(-c3ccccc3)cc3c2CCCC3)c1` was 191 to 193 °C; that for `O=C(O)C(=O)c1ccc(OCCCCOc2ccccc2)cc1` was 103 to 105 °C. On to `O=C(O)Cc1cc(C(=O)Cc2ccccc2)ccc1O`, for which the melting point was found to be 198 °C. Take `O=C(Nc1ccc(C(=O)N2CCCC(=NO)c3ccccc32)cc1)c1cc(Cl)cc(Cl)c1`: the melting point fell in the range of 272 to 273 °C. Regarding `CCSC(=O)c1nc(N)ccc1Oc1nc(OC)cc(OC)n1`, the melting point lay in the range of 115 to 118 °C. The molecule `O=C(O)c1ccc(-c2cc3ccccc3o2)cc1` registered a melting point of 292 to 294 °C.

In turn, `CCOC(=O)C(C)(C)Oc1ccc(CNC(=O)c2sc(-c3ccc(C(C)C)cc3)nc2C)cc1C` had a melting point of 129 to 131 °C. As for `CCC(C)C(OCc1ccccc1)C1C(C(=O)NCC(=O)O)NC(C2CC2)C1[N+](=O)[O-]` (centres undefined), the melting point lay in the range of 161 to 163 °C. The value for `Oc1ccc(-c2noc3cc(O)ccc23)cc1` was 192 to 194 °C. Turning to `CS(=O)(=O)c1ccc(C(=O)c2cnoc2C2CC2)c(Cl)c1`, the melting point worked out at 116 °C. Take `CC(=O)OC1C(c2ccccc2)=C(c2ccc(S(C)(=O)=O)cc2)C1(C)C` (centres undefined): the melting point fell in the range of 60 to 61 °C.

As for `Clc1ccc2c(c1)C(c1ccccc1)=Nc1cccnc1N2`, the melting point was in the range of 156 to 158 °C. The value for `CC(C)(C)OC(=O)N1CCC(CCC(=O)N2CCC[C@@H](C(=O)O)C2)CC1` was 102 to 104 °C; that for `CC(C)(C)n1[nH]c(Cc2ccncc2)c2c(=O)nc(-c3ccncc3)nc1-2` was 233 to 235 °C. `Cc1cc2ncnn2nc1OCC(C)(C)CS(N)(=O)=O` had a melting point of 216 to 218 °C. Regarding `Oc1cc(OCc2ccccc2)cc(OCc2ccccc2)c1`, the melting point is 107 to 109 °C. Consider `COC(=O)C1Cc2c([nH]c3ccccc23)C(C)N1Cc1ccccc1` (centres undefined), for which the melting point is 143 to 144 °C. In turn, `COc1c2c(c(OC)c(OC)c1OC)CCC(CCO)CC2` displayed a melting point of 64 to 66 °C. The value for `NC(=O)c1cccc(OCCCCC/C=C\c2ccc(Cl)o2)c1` was 53 to 56 °C; that for `CN(C)CCCSc1ccc2ccc(N)nc2n1` was 164 °C; that for `CCCCNC(=O)NS(=O)(=O)c1ccccc1S(=O)(=O)C(C)C` was 164 to 166 °C.

Take `Cn1cc(S(C)(=O)=O)c(=O)c2ccc(Cl)cc21`: the melting point is 241 to 242 °C. Molecule `O=C(O)Cc1ccc2c(c1)C(=O)Cc1ccccc1O2` gave a melting point of 156 to 157 °C. `CCCCc1nn(-c2cc(NC(=O)CC)ccc2C(F)(F)F)c(=O)n1Cc1ccc(-c2ccccc2S(=O)(=O)NC(=O)c2ccccc2Cl)cc1` showed a melting point of 102 to 105 °C. As to `COc1ccc(S(=O)(=O)Nc2ccccc2NC(=O)c2ccccc2)cc1OC`, the melting point lay in the range of 183 to 184 °C. Take `CN1C(=O)C(NC(=O)NC23CC4CC(CC(C4)C2)C3)N=C(c2ccccc2)c2ccccc21` (centres undefined): the melting point lay in the range of 264 to 265 °C.

Turning to `O=C(O)c1noc(-c2cnccc2C(F)(F)F)n1`, the melting point lay within 157 to 159 °C. With `COc1cccc(-c2nc(-c3ccccc3COC(=O)c3ccccc3)n[nH]2)c1`, the melting point fell in the range of 128 to 130 °C. `CCCCc1cc(C(O)=S)cc(N)c1Cc1ccccc1`: the melting point was 136 to 138 °C. On to `Cn1cc(C(=O)c2ccc3ccccc3c2)cc1C(=O)CCl`, for which the melting point was 148 to 151 °C. Molecule `COc1ccc(C(C#N)C(=O)Cc2ccccc2)cc1` (centres undefined) returned a melting point of 115 to 116 °C. The value for `Nc1cc(Br)c(Br)cc1N` was 189 to 190 °C; that for `O=Cc1csc(N2CCOCC2)n1` was 107 to 108 °C. `COc1ccc(-n2nc3c(cc2=O)CCSc2sc(Br)cc2-3)cc1`: the melting point fell in the range of 148 to 150 °C. The value for `CCCCCCCCCCCCCCc1ccc(OCC(O)CO)c(CC)c1` (centres undefined) was 55 to 56 °C; that for `C[C@@H]1N=C(c2ccccc2Cl)c2c(ccc(N)c2Br)N(C)C1=O` was 243 °C; that for `Nc1ccccc1C(=O)c1cccc(O)c1` was 130 to 132 °C. `CC(C)CC1=CC(c2ccccc2)C2=C(CCCC2=O)N1` (centres undefined) displayed a melting point of 182 to 184 °C. In turn, `COc1cc(C2(C=O)C=CC=CC2)ccc1OCCCBr` (centres undefined) registered a melting point of 88 to 89 °C. `CC1(C)CC(=O)C(C(=O)Nc2cc(F)cc(F)c2)C(=O)C1F` (centres undefined) yielded a melting point of 131 to 132 °C.
